# Data as given in PMC8694143 (Microbiology Spectrum, 2021).
# “Also recorded” adds a separate entry of the source. Non-standard residues stand in square brackets, D forms with d. Residues, ends and D or L forms follow the SMILES beside them. No end group written: not given here.
# What was measured:
# [1] = system: MRSA ATCC BAA-42; test: MIC determination in broth; format: cell-based, Staphylococcus aureus; conditions: STIP3 variants, highest conc. tested 100 μg/mL; cation-adjusted MH broth, ~10^5 CFU/mL, 2-fold dilution series, 37°C, 16 h
# Procedure: (§1) M. luteus ATCC 4698, S. aureus ATCC 29213, a panel of 7 MRSA (ATCC MP-2) strains, which includes ATCC BAA-41, BAA-42, BAA-44, BAA-1683, BAA-2094, BAA-2313, and 33592, and a series of additional bacterial isolates from human and veterinary cases were used in this study (Table S6). Bacterial strains were routinely grown in lysogeny broth (LB: 10 g/L tryptone, 5 g/L yeast extract, 10 g/L NaCl) at 30°C (M. luteus) or 37°C (Staphylococcus spp.) prior to use in specific experiments described below.
# (§2) The MICs were measured for bioactive peptides identified from the initial screen. Cation-adjusted Mueller-Hinton (MH) broth was used as the growth medium for MIC determination experiments. Bacterial cultures were diluted to an OD of 5 × 10^−4 (∼10^5 CFU/mL) in 200 μL MH broth mixed with peptides in a 2-fold dilution series arrayed in 96-well plates. Plates were incubated without shaking at 30 or 37°C depending on the organism.
# [2] = system: S. aureus ATCC 29213; test: MIC determination in broth; format: cell-based, Staphylococcus aureus; conditions: STIP3 variants, highest conc. tested 100 μg/mL; cation-adjusted MH broth, ~10^5 CFU/mL, 2-fold dilution series, 37°C, 16 h
# Procedure: as §1, §2
# [3] = system: MRSA ATCC BAA-2313; test: MIC determination in broth; format: cell-based, Staphylococcus aureus; conditions: STIP3 variants, highest conc. tested 100 μg/mL; cation-adjusted MH broth, ~10^5 CFU/mL, 2-fold dilution series, 37°C, 16 h
# Procedure: as §1, §2
# [4] = system: MRSA ATCC BAA-1683; test: MIC determination in broth; format: cell-based, Staphylococcus aureus; conditions: STIP3 variants, highest conc. tested 100 μg/mL; cation-adjusted MH broth, ~10^5 CFU/mL, 2-fold dilution series, 37°C, 16 h
# Procedure: as §1, §2
# [5] = system: MRSA ATCC BAA-41; test: MIC determination in broth; format: cell-based, Staphylococcus aureus; conditions: STIP3 variants, highest conc. tested 100 μg/mL; cation-adjusted MH broth, ~10^5 CFU/mL, 2-fold dilution series, 37°C, 16 h
# Procedure: as §1, §2
# [6] = system: MRSA ATCC BAA-44; test: MIC determination in broth; format: cell-based, Staphylococcus aureus; conditions: STIP3 variants, highest conc. tested 100 μg/mL; cation-adjusted MH broth, ~10^5 CFU/mL, 2-fold dilution series, 37°C, 16 h
# Procedure: as §1, §2
# [7] = system: MRSA ATCC BAA-2094; test: MIC determination in broth; format: cell-based, Staphylococcus aureus; conditions: STIP3 variants, highest conc. tested 100 μg/mL; cation-adjusted MH broth, ~10^5 CFU/mL, 2-fold dilution series, 37°C, 16 h
# Procedure: as §1, §2
# [8] = system: MRSA ATCC 33592; test: MIC determination in broth; format: cell-based, Staphylococcus aureus; conditions: for MIC (μg/mL) for MRSA ATCC 33592: Table 1 and text; for MIC (μg/mL) for MRSA ATCC 33592 / MIC, S. aureus ATCC 33592 (SCCmec III): cation-adjusted MH broth, ~10^5 CFU/mL, 37°C, 16 h; for MIC, S. aureus ATCC 33592 (SCCmec III): Table S5, STIP3 variants, highest conc. tested 100 μg/mL, 2-fold dilution series
# Procedure: as §1, §2
# [9] = Circular dichroism spectroscopy; format: physicochemical; conditions: CD, 50% TFE (vol/vol), peptide 0.2 mg/mL, room temperature
# Procedure: Peptides were dissolved in ultrapure water or 50% TFE (vol/vol) at a concentration of 0.2 mg/mL for spectroscopy. Spectra of samples in a 1 mm pathlength quartz cuvette were recorded from 180 to 260 nm at 0.5 nm steps using an Applied Photophysics Chirascan Plus CD spectrophotometer operating at room temperature.
# [10] = system: S. aureus; test: MIC of STIP3-1 alanine variants in liquid broth; format: cell-based, Staphylococcus aureus; conditions: for Activity against S. aureus in nutrient broth: at 200 μg/mL; for MIC, S. aureus (alanine substituted STIP3-1, liquid broth): Table S4, maximum concentration tested 200 μg/mL, strain not given
# Procedure: The MICs were measured for bioactive peptides identified from the initial screen. […] […] Plates were incubated without shaking at 30 or 37°C depending on the organism.
# [11] = system: M. luteus ATCC 4698; test: MIC determination in broth; format: cell-based, Micrococcus luteus; conditions: cation-adjusted MH broth, ~10^5 CFU/mL, 30°C, 48 h
# Procedure: as §1, §2
# [12] = system: SspA; test: SspA protease resuspended at 2 mg/mL in 100 mM HEPES (pH 7.8); conditions: 37°C, up to 5 h
# [13] = system: SspA; test: SspA protease in 100 mM HEPES (pH 7.8); conditions: Staphylococcus aureus (staphylococcal secreted protease), 37°C, up to 5 h
# [14] = system: S. aureus ATCC 29213; test: Spot-on-lawn assay; format: cell-based, Staphylococcus aureus; conditions: 50 μg peptide (about 45 μg of SspA reaction mixture) spotted on inoculated soft agar, 37°C, 16 to 48 h
# Procedure: Peptides (≥70% purity) were resuspended in sterile double distilled water (ddH2O) at a concentration of 10 mg/mL (gross weight), and M. luteus and S. aureus ATCC 29213 were used as indicator strains. To prepare test organisms, the optical density (OD) of overnight cultures was measured and the organisms were diluted to an initial OD of 0.05 (S. aureus) or 0.1 (M. luteus) in soft nutrient agar (0.4% wt/vol) at 50°C. Next, 3 mL of soft agar containing a test organism was overlaid on solid LB agar (1.5% wt/vol). A total of 50 μg of each peptide was spotted on the inoculated surface and plates were incubated for 16 to 48 h at 37 or 30°C.
# SspA protease was resuspended at 2 mg/mL in 100 mM HEPES (pH 7.8). Peptide samples (45 μL at 10 mg/mL) were mixed with SspA (5 μL at 2 mg/mL) and incubated at 37°C for a total of 5 h. The antimicrobial activities of the reaction mixtures were assayed by spotting 5 μL (∼45 μg) of each on either M. luteus or S. aureus test organisms as described above. Additional samples were flash frozen in liquid nitrogen and stored at −80°C prior to high-pressure liquid chromatography-mass spectrometry (HPLC/MS) analysis.
compound,measurement,setting,value
CC[C@@H](C)[C@@H](NC(=O)[C@@H](Cc1c[nH]c2ccccc12)NC(=O)[C@@H](CCCCN)NC(=O)[C@H](NC(=O)[C@@H](CC(C)C)NC(=O)CNC(=O)CNC(=O)[C@H](NC(=O)[C@H](N)[C@H](C)O)C(C)C)C(C)C)C(=O)N[C@H](CC(C)C)C(=O)N[C@H](CCCCN)C(=O)N[C@@H](C(=O)N[C@@H](C(=O)N[C@H](CCCCN)C(=O)N[C@H](CCCCN)C(=O)N[C@H](Cc1ccccc1)C(=O)N[C@H](C)C(N)=O)C(C)C)[C@H](C)O [D-STIP3-29] (H-[dT][dV]GG[dL][dV][dK][dW][dI][dL][dK][dT][dV][dK][dK][dF][dA]-NH2; N-terminus assumed),"MIC, S. aureus ATCC BAA 42 (SCCmec VI)",[1],6.25 mg/L
same,"MIC, S. aureus ATCC 29213",[2],6.25 mg/L
same,"MIC, S. aureus ATCC BAA 2313 (SCCmec XI)",[3],6.25 mg/L
same,"MIC, S. aureus ATCC BAA 1683 (SCCmec IV)",[4],6.25 mg/L
same,"MIC, S. aureus ATCC BAA 41 (SCCmec II)",[5],6.25 mg/L
same,"MIC, S. aureus ATCC BAA 44 (SCCmec I)",[6],12.5 mg/L
same,"MIC, S. aureus ATCC BAA 2094 (SCCmec V)",[7],6.25 mg/L
same,MIC (μg/mL) for MRSA ATCC 33592,[8],6.25 µg/mL
same,"MIC, S. aureus ATCC 33592 (SCCmec III)",[8],6.25 mg/L
same,α-Helical content (%),[9],47%
CC[C@H](C)[C@H](NC(=O)[C@H](Cc1c[nH]c2ccccc12)NC(=O)[C@@H](CCCCN)NC(=O)[C@@H](NC(=O)[C@H](CC(C)C)NC(=O)CNC(=O)CNC(=O)[C@@H](NC(=O)[C@@H](N)[C@@H](C)O)C(C)C)C(C)C)C(=O)N[C@@H](CC(C)C)C(=O)N[C@H](CCCCN)C(=O)N[C@H](C(=O)N[C@H](C(=O)N[C@@H](CCCCN)C(=O)N[C@H](CCCCN)C(=O)N[C@@H](Cc1ccccc1)C(=O)N[C@@H](C)C(N)=O)C(C)C)[C@@H](C)O [STIP3-29-D3] (H-TVGGLV[dK]WIL[dK]TVK[dK]FA-NH2; N-terminus assumed),"MIC, S. aureus ATCC 29213",[2],> (The > symbol indicates that no inhibition was observed at 100 μg/mL for the STIP3 variants)
same,Increase of the MIC relative to STIP3-29,[8]; D-Lys substituted variants,inactivation
same,MIC (μg/mL) for MRSA ATCC 33592,[8],>100 µg/mL
same,"MIC, S. aureus ATCC 33592 (SCCmec III)",[8],> (The > symbol indicates that no inhibition was observed at 100 μg/mL for the STIP3 variants)
same,α-Helical content (%),[9],32%
AVGGLVKWILDTVKKFA [T1A],Activity against S. aureus in nutrient broth,[10],maintained activity
same,"MIC, M. luteus",[11],12.5 mg/L
IIGTINDLIKWIADTVEKYKK,cleaved bond,[12],D-L and D-T
same,fragment found,[12],KYKK and LIKWIADTVE
same,fragment found,[13],IIGTIND; also recorded: LIKWIAD
IISTIGDLIKWIIDTVKKFKK,cleaved bond,[12],D-T
same,fragment found,[13],IISTIGDLIKWIID; also recorded: TVKKFKK
IISTIVEFVKLIAETIAKFMK,cleaved bond,[12],E-T and E-F
same,fragment found,[13],IISTIVE; also recorded: FVKLIAETIAKFMK; also recorded: TIAKFMK
IVETVGGLVKWILDTVKKFA,cleaved bond,[12],D-T
same,fragment found,[12],IVE and TVGGLVKWILDTVKKFA and TVGGLVKWILD
same,fragment found,[13],TVKKFA
TVAGLVKWILDTVKKFA [G3A],"MIC, M. luteus",[11],50 mg/L
same,"Inhibition of S. aureus growth, spot-on-lawn",[14],inhibition observed on an agar surface
TVGALVKWILDTVKKFA [G4A],"MIC, M. luteus",[11],12.5 mg/L
same,"Inhibition of S. aureus growth, spot-on-lawn",[14],inhibition observed on an agar surface
TVGGLVKWILATVKKFA [STIP3-2],"MIC, S. aureus (alanine substituted STIP3-1, liquid broth)",[10],100 mg/L
same,Activity against S. aureus in nutrient broth,[10],maintained activity
same,"MIC, S. aureus ATCC BAA 42 (SCCmec VI)",[1],50 mg/L
same,"MIC, S. aureus ATCC 29213",[2],100 mg/L
same,"MIC, S. aureus ATCC BAA 2313 (SCCmec XI)",[3],50 mg/L
same,"MIC, S. aureus ATCC BAA 1683 (SCCmec IV)",[4],50 mg/L
same,"MIC, S. aureus ATCC BAA 41 (SCCmec II)",[5],100 mg/L
same,"MIC, S. aureus ATCC BAA 44 (SCCmec I)",[6],100 mg/L
same,"MIC, S. aureus ATCC BAA 2094 (SCCmec V)",[7],50 mg/L
same,"MIC, S. aureus ATCC 33592 (SCCmec III)",[8],50 mg/L
same,"MIC, M. luteus",[11],3.13 mg/L
TVGGLVKWILDAVKKFA [T12A],"MIC, S. aureus (alanine substituted STIP3-1, liquid broth)",[10],100 mg/L
same,Activity against S. aureus in nutrient broth,[10],maintained activity
same,"MIC, M. luteus",[11],12.5 mg/L
TVGGLVKWILDTAKKFA [V13A],Activity against S. aureus in nutrient broth,[10],maintained activity
same,"MIC, M. luteus",[11],50 mg/L
TVGGLVKWILDTVAKFA [K14A],"MIC, M. luteus",[11],12.5 mg/L
same,"Inhibition of S. aureus growth, spot-on-lawn",[14],inhibition observed on an agar surface
TVGGLVKWILDTVKAFA [K15A],"MIC, M. luteus",[11],25 mg/L
same,"Inhibition of S. aureus growth, spot-on-lawn",[14],inhibition observed on an agar surface
TVGGLVKWILDTVKKFA,cleaved bond,[12],Asp11-T12
same,fragment found,[13],TVGGLVKWILD; also recorded: TVKKFA
